Results taken from patent US10495648B2, “Methods of treating liver fibrosis” (GILEAD SCIENCES, INC., priority 2017, dated 2019).
Several values for one entry are separate records, joined by “and”; a condition that tells them apart may be missing. Equal values may be shown once.

Key:
Assay type in all cases: in vivo, human
plasma miRNAs = assay: Plasma miRNA qPCR in phase 2 study GS-US-384-1497, miRNAs modulated by SEL treatment
Description: Plasma samples were obtained from 72 subjects enrolled in the GS-US-384-1497 Gilead study. The study is a phase 2 study evaluating the safety, tolerability, and efficacy of selonsertib (ASK1 inhibitor) alone or in combination with simtuzumab (SIM) in subjects with Nonalcoholic Steatohepatitis (NASH) and fibrosis stages F2-F3. The inclusion criteria included patients with metabolic syndrome, serum ALT≥1.5×ULN and ≤5×ULN, and Fibroscan that measures liver stiffness: ≥7 kPa and <12 kPa, or NAS score greater ≥5 with fibrosis stage 2 to 3.
Total RNA samples were isolated and 301 selected miRNA were measured by qPCR. MiRNA expression levels were normalized using the global mean of all expressed miRNAs. Differential expression analyses were performed using limma method; p-values in multiple comparisons were corrected using the Benjamini-Hochberg method. Spearman correlations were calculated between miRNA expression with fibrosis stage and NAS score at baseline and at week 24.
11 miRNAs (hsa-miR-505-3p, hsa-miR-29a-3p, hsa-miR-215-5p, hsa-miR-148a-3p, hsa-miR-99a-5p, hsa-miR-885-5p, hsa-miR-122-5p, hsa-miR-34a-5p, hsa-miR-365a-3p, hsa-miR-194-5p, hsa-miR-155-5p) with nominal […] were modulated by SEL treatment, see Table 2 below.

plasma miRs = assay: Plasma miR qPCR in GS-US-321-0105 and GS-US-321-0106, association with SIM treatment
Protocol: Screen failed subjects were included in the analysis to ensure the miRs were analyzed in all the fibrosis stages. The samples analyzed after quality control, which excluded samples that were hemolyzed and samples that had overall low expression of miRs.
Plasma miRs were isolated with spike-in controls using total RNA isolation kit (Exiqon, Denmark). Complementary DNA was synthesized with spike-in control using the Exiqon cDNA synthesis kit and selected plasma miRs (n=157) were measured at BL, W12, and W24 by qPCR using the Exiqon platform (Covance, USA). For the 1497 study, 301 miRs were measured but only 132 miRs were expressed therefore for the 105/106 studies we measured the 132 miRs with 25 additional miRs were measured for the 105/106 study. The data was normalized using Global fit method of normalization.

NASH patients = assay: Safety and efficacy of SIM in NASH patients, studies GS-US-321-0105 and GS-US-321-0106 (fibrosis)
Protocol: The miR analysis was expanded to using GS-US-321-0105 and GS-US-321-0106 studies where biopsy proven samples were used from NASH patients. These studies had evaluated the safety and efficacy of Simtuzamab (SIM) in NASH patients. […] It was observed that 20% of the samples had fibrosis improvement, 20% fibrosis […] and for the rest of the subjects the fibrosis remained unchanged. As these samples represented the natural history of fibrosis changes, miR expression was analyzed in these samples.
Subjects in GS-US-384-1497 phase 2 trials were enrolled with F2-3 Stages of fibrosis and subjects in GS-US-321-0105 phase 2 trial were enrolled with F3 Stage of fibrosis and GS-US-321-0106 phase 2 trial subjects were enrolled with F4 stage of fibrosis.

Row | Molecule | Fold Change miR-29a-3p (plasma miRNAs; 6 mg SEL ± SIM, week 24) | Fold Change miR-34a-5p (plasma miRNAs; 6 mg SEL ± SIM, week 24) | Fold Change miR-99a-5p (plasma miRNAs; 6 mg SEL ± SIM, week 24) | Fold Change miR-122-5p (plasma miRNAs; 6 mg SEL ± SIM, week 24) | Fold Change miR-148a-3p (plasma miRNAs; 6 mg SEL ± SIM, week 24) | Fold Change miR-194-5p (plasma miRNAs; 6 mg SEL ± SIM, week 24) | Fold Change miR-215-5p (plasma miRNAs; 6 mg SEL ± SIM, week 24) | Fold Change miR-365a-3p (plasma miRNAs; 6 mg SEL ± SIM, week 24) | Fold Change miR-505-3p (plasma miRNAs; 6 mg SEL ± SIM, week 24) | Fold Change miR-885-5p (plasma miRNAs; 6 mg SEL ± SIM, week 24) | Fold Change miR-34a-5p (plasma miRNAs; 18 mg SEL ± SIM, week 24) | Fold Change miR-99a-5p (plasma miRNAs; 18 mg SEL ± SIM, week 24) | Fold Change miR-155-5p (plasma miRNAs; 18 mg SEL ± SIM, week 24) | Fold Change miR-885-5p (plasma miRNAs; 18 mg SEL ± SIM, week 24) | number of miRNAs modulated by SEL treatment (plasma miRNAs; GS-US-384-1497, week 24) | miRs associated with SIM treatment (plasma miRs) | effect on fibrosis (NASH patients)
1 | Cc1cc(F)c(C(=O)Nc2cccc(-c3nncn3C(C)C)n2)cc1-n1cnc(C2CC2)c1 [SEL, selonsertib] | −1.23 | −1.54 | −1.33 | −1.42 | −1.28 | −1.30 | −1.27 | −1.65 | −1.24 | −1.37 | −1.33 | −1.25 | 1.33 | −1.56 | 11 and 12 | – | –
2 | simtuzumab (antibody, chains of the INN, looked up, V domains shown) VH: QVQLVQSGAEVKKPGASVKVSCKASGYAFTYYLIEWVRQAPGQGLEWIGVINPGSGGTNYNEKFKGRATITADKSTSTAYMELSSLRSEDTAVYFCARNWMNFDYWGQGTTVTVSS VL: DIVMTQTPLSLSVTPGQPASISCRSSKSLLHSNGNTYLYWFLQKPGQSPQFLIYRMSNLASGVPDRFSGSGSGTDFTLKISRVEAEDVGVYYCMQHLEYPYTFGGGTKVEIK | – | – | – | – | – | – | – | – | – | – | – | – | – | – | – | no miRs associated with SIM treatment | ineffective at reducing fibrosis
